Literature values as cited in PMC10894724 (Chemistry (Weinheim an der Bergstrasse, Germany), 2023).

Test system: P. falciparum Dd2 strain

CCCCCC(=O)N[C@H](C(=O)N[C@@H](CCS(C)(=O)=O)C(=O)N[C@@H](CC(C)C)C(=O)[C@@]1(C)CO1)C(C)C [carmaphycin B]
selectivity for asexual blood stage P. falciparum cells over human HepG2 cells: 3 fold
